Marks after values point to notes of the source that are not given here.
Experiments:
[1] = CSF and plasma concentration ratios for ibrutinib and PCI-45227, patient 01-001BF; type: in vivo, human; settings: ibrutinib 560 mg daily; for Kp: human, CSF/plasma, 560 mg daily
[2] = Adsorption test in human CSF to Nunc CryoTube vials; type: physicochemical; settings: incubated for 1 h on ice, Low and High QC
Source text: These QC samples were kept in Nunc CryoTube vials for one hour. After an hour, each sample was vortex mixed and assayed against freshly prepared calibration standards. The obtained concentrations of the adsorption test QC samples were compared to the nominal values. The samples were considered to have no adsorption to the Nunc CryoTube vials if the mean value of the obtained concentrations was within 20% of the nominal concentration.

[3] = Quantification of PCI-32765 (ibrutinib) and its metabolite PCI-45227 in human cerebrospinal fluid samples of patient 01-001BF (LC-MS/MS); type: in vivo; settings: for observed in CSF samples: patient 01-001BF after 560 mg of ibrutinib daily; for Calculated Concentration in CSF: patient 01-001BF, ibrutinib 560 mg daily
Description: Samples were obtained from patient (01-001BF), a person with Waldenstrom's macroglobulinemia with amyloid and Bing-Neel syndrome.
Standards and QC sample preparation and data analysis were carried out using the methods described in Example 1. In brief, all samples and standards were prepared on ice. Internal standard (IS) was prepared by addition of d5-PCI-32765 and d5-PCI-45227 in 0.2% formic acid in 1:9 (v/v) water: ACN (acetonitrile).
A100 μL of either a sample or a standard was transferred into each well of a 96-well plate. To each well was added 20 μL of the internal standard solution. […] Next, the 96-well plate was capped and vortexed thoroughly and then centrifuged at 4000 rpm for at least 10 minutes at 4° C.
High performance liquid chromatography (HPLC) (Shimadzu Nexera X2 HPLC system) was coupled with an electrospray ionization triple quadrupole mass spectrometer (AB SCIEX API-6500), and an autosampler (CTC PAL Eksigent). Chromatographic separation was achieved using an XBridge™ Ethylene-Bridged Hybrid (BEH) C18 column, 3.5 μm (2.1×50 mm) (Waters), and a C 18 guard column (2×4 mm) (Phenomenex Security Guard). Mobile phase A was 0.1% formic acid in water and mobile phase B was 100% acetonitrile. In all conditions, the column temperature was at ambient, the autosampler temperature was at 4° C., and the injection volume was 10 μL. The diversion time from HPLC to MS was from 0.5 minutes to 2.5 minutes.
The mass spectrometer (MS) equipped with an ESI source, was operated at a source temperature of 700° C.

[4] = Short-term storage stability in human CSF at −70±5° C.; type: in vitro ADME; settings: −70±5° C. for at least 7 days, n=6
[5] = QC samples freeze (−70° C.)/thaw (on ice) stability in human CSF; type: in vitro ADME; settings: nominal 0.500 ng/mL, 3 freeze/thaw cycles, n=6
Description: QC samples stored at −70° C., which were subjected to 3 freeze/thaw (ice) cycles, were measured against freshly prepared calibration standards.

[6] = cited from earlier work
[7] = QC samples bench-top (ice) stability in human CSF; type: in vitro ADME; settings: nominal 0.500 ng/mL, on ice for 2 hours, n=6
[8] = Day 1, pre-dose (0 h), BQL = below quantification limit (0.3 ng/mL)

| SMILES | Kp ([1]; 1 Month, 3 h) | Kp ([1]; Day 1, 2 h) | adsorption to Nunc Cryo Tube vials [2] | observed in CSF samples [3] | Calculated Concentration in CSF ([3]; 1 Month, 3 h) [ng/mL] | Calculated Concentration in CSF ([3]; Day 1, 2 h) [ng/mL] | Calculated Concentration in CSF [3, 8] | Calculated Concentration in CSF ([3]; Day 1, pre-dose (0 h), BQL = below quantification limit (0.3 ng/mL), listed as Ibrutinib) | Intra-run QC Low, % Accuracy ([4]; nominal 0.500 ng/mL) [%] | Intra-run QC Low, Mean ([4]; nominal 0.500 ng/mL) [ng/mL] | Intra-run QC Mid, % Accuracy ([4]; nominal 5.00 ng/mL) [%] | Intra-run QC Mid, Mean ([4]; nominal 5.00 ng/mL) [ng/mL] | % CSF/Plasma ([1]; 1 Month, 3 h) [%] | % CSF/Plasma ([1]; Day 1, 2 h) [%] | F/T3 (−70° C.) Low QC, % Accuracy [5] [%] | F/T3 (−70° C.) Low QC, Mean [5] [ng/mL] | reported percentage of unbound of the compounds in plasma [6] [%] | Bench-top QC Low Concentration, Mean [7] [ng/mL] | Bench-top QC Low, % Accuracy [7] [%] |
| --- | --- | --- | --- | --- | --- | --- | --- | --- | --- | --- | --- | --- | --- | --- | --- | --- | --- | --- | --- |
| C=CC(=O)N1CCC[C@@H](n2nc(-c3ccc(Oc4ccccc4)cc3)c3c(N)ncnc32)C1 [PCI-32765, (R)-1-(3-(4-amino-3-(4-phenoxyphenyl)-1H-pyrazolo[3,4-d]pyrimidin-1-yl)piperidin-1-yl)prop-2-en-1-one] | 0.035 | 0.03 | no adsorption | observed | 7.19 | 15.0 | BQL | BQL^a |  |  |  |  |  |  |  |  |  |  |  |
| Nc1ncnc2c1c(-c1ccc(Oc3ccccc3)cc1)nn2[C@@H]1CCCN(C(=O)C(O)CO)C1 (stereo partly drawn) [PCI-45227] |  |  | no adsorption | observed | 15.4 | 14.7 | BQL and BQL^a |  | 99.4 | 0.497 | 87.8 | 4.39 | 8.5 | 6.2 | 97.2 | 0.486 | 9 | 0.458 | 91.5 |

— patent publication US20160008366A1, “BTK INHIBITORS FOR THE TREATMENT OF CNS MALIGNANCIES” (Pharmacyclics LLC, priority 2014, published 2016)
